Source: patent US20110275103A1, “EMISSION RATIOMETRIC REPORTERS OF MEMBRANE PDK1 ACTIVATION” (THE JOHNS HOPKINS UNIVERSITY, priority 2010, published 2011)
Entries after “also recorded” stand apart in the source; their conditions may differ.

What was measured:
Assay type in all cases: cell-based
PDK1 [1] = assay: FRET emission ratio imaging of Lyn-PARE in 3T3 L1 preadipocytes; conditions: pre-incubation with 50 μM C2-ceramide
Excerpt: (§1) PARE was generated by sandwiching full-length PDK1 between a FRET pair, ECFP and Citrine. Lyn-PARE and PARE-Kras were generated by the addition of the N-terminal portion of the Lyn kinase gene (GCIKSKRKDKD; SEQ ID NO:6) at the 5′ end and a C(A)2X tag (C is cysteine, A is an aliphatic amino acid, and X is any amino acid) at the 3′ end (KKKKKSKTKCVIM; SEQ ID NO:7) of PARE, respectively. Lyn-PARE R472/474A was generated by site-directed mutagenesis. PTEN A4 (fused with a C-terminal fluorescent protein) was targeted to raft and non-raft regions of plasma membrane with the same set of targeting motifs. All of the constructs were generated in a modified version of the mammalian expression vector pcDNA 3.
Cells were plated on sterilized glass coverslips in 35 mm dishes and were grown to 40% confluency in medium at 37° C. with 5% CO2, then transfected with Lipofectamine 2000. In the case of NIH 3T3 and HeLa cells, the cells were serum-starved for 24 h. For imaging, cells were washed with Hanks' balanced salt solution (HBSS) and imaged in the dark at room temperature. […] Imaging data were analyzed with Metafluor 6.2 software (Universal Imaging, Downingtown, Pa.). Fluorescence images were background-corrected by deducting the background (regions with no cells) from the emission intensities of CFP or YFP. […]

PDK1 [2] = assay: FRET emission ratio imaging of PDK1 activation reporters (PARE, Lyn-PARE, PARE-Kras) in NIH 3T3 cells; conditions: for emission ratio change of the non-raft-targeted reporter (PARE-Kras) / emission ratio change of the untargeted reporter (PARE) / response of the Lyn-PARE R472/474A mutant reporter / increase in the yellow-to-cyan emission ratio of the raft-targeted PDK1 activity reporter (Lyn-PARE): serum-starved NIH 3T3 cells
Excerpt: as §1
(§2) Cells were plated on sterilized glass coverslips in 35 mm dishes and were grown to 40% confluency in medium at 37° C. with 5% CO2, then transfected with Lipofectamine 2000. In the case of NIH 3T3 and HeLa cells, the cells were serum-starved for 24 h. For imaging, cells were washed with Hanks' balanced salt solution (HBSS) and imaged in the dark at room temperature. Images were acquired on a Zeiss Axiovert 200M microscope with a cooled charge-coupled device camera, as previously described (8). Dual-emission ratio imaging was performed with a 420DF20 excitation filter, a 450DRLP dichroic mirror, and two emission filters. For CFP and YFP, 475DF40 and 535DF25, respectively, were used. Exposure times were 50-500 ms. Images were taken every 30 s. Imaging data were analyzed with Metafluor 6.2 software (Universal Imaging, Downingtown, Pa.). Fluorescence images were background-corrected by deducting the background (regions with no cells) from the emission intensities of CFP or YFP. Traces were normalized by taking the emission ratio before addition of drugs as 1.

Akt [3] = assay: Membrane translocation of Akt PH domain in 3T3 L1 preadipocytes; conditions: pre-incubation with 50 μM C2-ceramide
Method: as §2

Akt [4] = assay: FRET-based Akt activity reporter (AktAR) imaging in 3T3 L1 preadipocytes; conditions: pre-incubation with 50 μM C2-ceramide
Method: as §2

Akt [5] = assay: FRET-based Akt activity reporter (AktAR) imaging in NIH 3T3 cells; conditions: pre-incubation with 50 μM C2-ceramide for 60 min
Method: as §2

Akt [6] = assay: Membrane translocation of YFP-tagged Akt PH domain in NIH 3T3 cells
Method: as §2

PTEN = assay: Sucrose density gradient fractionation of crude plasma membranes and anti-PTEN Western blot, 3T3-L1 adipocytes
Method: Cells were washed with ice-cold PBS and then lysed in RIPA lysis buffer containing protease inhibitor cocktail (Roche), 1 mM PMSF, 1 mM NaVO4, 1 mM NaF and 25 nM calyculin A. Total cell lysates were incubated on ice for 30 min, then centrifuged at 4° C. for 20 min. Total protein was separated with 7.5% SDS-PAGE and transferred to nitrocellulose membranes. The membranes were blocked with TBS containing 0.05% Tween-20 and 1% bovine serum albumin, then incubated with primary antibodies overnight at 4° C. After incubation with the appropriate horseradish peroxidase-conjugated secondary antibodies, the bands were visualized by enhanced chemiluminescence. The intensity of the bands was quantified with ImageJ software.
Cells were rinsed twice with ice-cold PBS and harvested into 10 mM Tris (pH 7.4) with 150 mM NaCl, 5 mM EDTA, 2 mM PMSF, 2 mM NaVO4, 2 mM NaF, and 50 nM calyculin A, with protease inhibitor cocktail. The cells then were subjected to mechanical disruption with 15 strokes of a homogenizer. Homogenates were centrifuged at 2,300×g for 5 min at 4° C., and the supernatant was centrifuged at 18,000×g for 50 min at 4° C. (32). The resulting membrane pellets were resuspended in 10 mM Tris (pH 7.4) with 150 mM NaCl, 5 mM EDTA, 2 mM PMSF, 2 mM NaVO4, 2 mM NaF and 50 nM calyculinA A, with protease inhibitor cocktail and 1% Triton X-100, for sucrose density gradient fractionation. […]

3T3 L1 adipocytes = assay: Glucose uptake assay ([14C]2-deoxyglucose) in 3T3 L1 adipocytes; conditions: pre-incubation with 50 μM C2-ceramide for 60 min, 100 nM insulin, n=3
Method: 3T3-L1 preadipocytes were grown to confluency in 10% calf serum/DMEM and stimulated with induction media (DMEM containing 10% fetal bovine serum, 1 μg/ml insulin, 1 μM dexamethasone, and 0.5 mM 3-isobutyl-1-methylxanthine) at 2 days post-confluency.
The medium was changed to insulin medium (1 μg/ml) 2 days after induction. Two days later, the medium was replaced with 10% fetal bovine serum/DMEM and then changed every 2 days. Full differentiation was achieved by 8 days after induction.
Adipocytes were incubated in Krebs-Ringer bicarbonate buffer supplemented with 30 mM HEPES, pH 7.4, with 0.5% BSA (KRBH/BSA) and 2.5 mM glucose for 3 h. The cells were washed once with PBS and incubated in BSA/KRH (25 mM HEPES-NaOH, pH 7.4, with 120 mM NaCl, 5 mM KCl, 1.2 mM MgSO4, 1.3 mM CaCl2, and 1.3 mM KH2PO4) without glucose for 15 min. The cells were then incubated with 100 nM insulin for 15 min. The assay was initiated by the addition of ^[14C]2-deoxyglucose (0.4 μCi/sample) and 5 mM glucose and terminated after 15 min by washing the cells three times with ice-cold PBS. Cells were solubilized in 1% Triton-100, and cell-associated radioactivity was determined by scintillation counting.

PDK1 [7] = assay: FRET emission ratio imaging of PDK1 activation reporters in HeLa cells; conditions: serum-starved HeLa cells; 100 ng/ml EGF
Excerpt: as §1, §2

[8] = NIH 3T3 cells, pre-incubation with 50 μM C2-ceramide for 60 min

## CCCCCCCCCCCCC/C=C/[C@@H](O)[C@H](CO)NC(C)=O [C2-ceramide]
PDK1 [1]
  effect on response of Lyn-PARE: abolished
PDK1 [2]; [8]
  effect on response of Lyn-PARE: abolished
Akt [3]
  effect on membrane translocation of Akt PH domain: abolished
Akt [4]
  effect on response of AktAR: abolished
Akt [5]
  effect on response of AktAR: abolished
Akt [6]; [8]
  effect on membrane translocation of Akt PH domain: abolished
PTEN; pre-incubation with 50 μM C2-ceramide, n=3
  increase in the amount of PTEN found in raft fractions: 8.8±2.1 fold
PTEN; pre-incubation with C2-ceramide
  level of PTEN in non-raft regions of adipocyte membranes: without changing the level of PTEN
3T3 L1 adipocytes
  effect on insulin-induced glucose uptake: blocked insulin-induced glucose uptake; also recorded: inhibited insulin-induced glucose uptake

## OO [H2O2]
PDK1 [2]; NIH 3T3 cells, 50 mM H2O2
  effect on Lyn-PARE response to PDGF suppressed by targeted PTEN A4: restored
Akt [6]; 50 mM H2O2
  effect on Akt PH membrane translocation suppressed by Lyn-PTEN A4: restored the membrane translocation
Akt [6]; H2O2 treatment
  effect on inhibition of Akt-PH translocation by non-raft-targeted PTEN A4 (PTEN A4-Kras): reversed

## EGF: epidermal growth factor, purchased from Sigma-Aldrich (NSDSECPLSHDGYCLHDGVCMYIEALDKYACNCVVGYIGERCQYRDLKWWELR; UniProt P01133 971-1023, looked up)
PDK1 [7]
  emission ratio change of the non-raft-targeted reporter (PARE-Kras): but not PARE (n=4) or PARE-Kras
  emission ratio change of the raft-targeted reporter (Lyn-PARE): induced an emission ratio increase
  emission ratio change of the untargeted reporter (PARE): but not PARE

## PDGF
PDK1 [2]; 50 ng/ml PDGF
  emission ratio change of the non-raft-targeted reporter (PARE-Kras): no emission ratio change
  emission ratio change of the untargeted reporter (PARE): no emission ratio change
  response of the Lyn-PARE R472/474A mutant reporter: lack of response
PDK1 [2]; 50 ng/ml PDGF, n=7
  increase in the yellow-to-cyan emission ratio of the raft-targeted PDK1 activity reporter (Lyn-PARE): 19±4%

## pervanadate [PV]
PDK1 [2]; 100 μM PV
  emission ratio change of the non-raft-targeted reporter (PARE-Kras): Only the raft-targeted PDK1 activity reporter showed an increase
  emission ratio change of the untargeted reporter (PARE): no emission ratio change
PDK1 [2]; 100 μM PV, n=5
  increase in the yellow-to-cyan emission ratio of the raft-targeted PDK1 activity reporter (Lyn-PARE): 20.7±3.3%
PDK1 [2]; PV
  response of the Lyn-PARE R472/474A mutant reporter: lack of response
